Entries after “also recorded” stand apart in the source; their conditions may differ.
How the values were obtained:
scgd−/− mice [1] = test: Percentage fibrosis in muscles (hydroxyproline content / trichrome-stained sections); assay type: in vivo; conditions: trichrome-stained sections of diaphragm, tibialis anterior, gastrocnemius, quadriceps
Text: FIG. 2(c) represents reduction of muscle pathology after administration of D-[MeAla]^3-[EtVal]^4-CsA in scgd−/− mice as assessed by quantitation of fibrotic areas in trichrome-stained sections from diaphragm (Diaph.), tibialis anterior (TA), gastrocnemius (Gastroc.), quadriceps (Quad). Assessed were sections from wild type (Wt) mice treated with either vehicle (white bar) or D-[MeAla]^3-[EtVal]^4-CsA (black bar) and from scgd−/− mice treated with either vehicle (gray bar or second to last bar in group) or D-[MeAla]^3-[EtVal]^4-CsA (dotted bar or last bar of group).
Different dissected muscles, gastrocnemius, quadriceps, tibialis anterior and heart muscles, were weighed and muscle weight (MW)-to-tibia length (TL) ratios (MW/TL) were determined. Results in FIG. 2(a) and FIG. 2(c) are presented as means±SEM (standard error of the means). A one-way ANOVA was used to compare means among 3 or more independent groups. […]
Percentage fibrosis was assessed by means of a biochemical assay that quantified hydroxyproline content (Parsons et al., Am. J. Pathol., 2006, 168:1975-1985) in diaphragm (Diaph.), tibialis anterior (TA), gastrocnemius (Gastroc.) and quadriceps (Quad) muscles from wild type and scgd−/− mice treated or not treated with D-[MeAla]^3-[EtVal]^4-CsA.

scgd−/− mice [2] = test: Quantitation of the distribution of fiber areas in skeletal muscles; assay type: in vivo; conditions: 50 mg/kg/day subcutaneous for 6 weeks; for Fiber area distribution / heterogeneity: 50 mg/kg/day
Text: (§1) FIG. 3(a) represents reduction of fiber area heterogeneity in muscle from scgd−/− mice after the administration of D-[MeAla]^3-[EtVal]^4-CsA as assessed by quantitation of the distribution of fiber areas in tibialis anterior (muscle). The study included wild type (Wt) mice treated with either vehicle (white bar) or D-[MeAla]^3-[EtVal]^4-CsA (black bar) and scgd−/− mice treated with either vehicle (gray bar or second to last bar in group) or D-[MeAla]^3-[EtVal]^4-CsA (dotted bar or last bar of group).
as §1, with “3(b)” for “3(a)”, “gastrocnemius. Included in the” for “tibialis anterior (muscle). The”, “were” for “included”
as §1, with “3(c)” for “3(a)”, “quadriceps muscle. Measurements were carried out on” for “tibialis anterior (muscle). The study included”
Scgd−/− mice were administered subcutaneously with either D-[MeAla]^3-[EtVal]^4-CsA at a dose of 50 mg/kg/day or vehicle for 6 weeks. […] The administration of the non-immunosuppressive D-[MeAla]^3-[EtVal]^4-CsA to scgd−/− mice reduced the regeneration rate of the fibers and normalized partially the distribution of small and large fibers.

scgd−/− mice [3] = test: Muscle weight-to-tibia length ratios (pseudo-hypertrophy) in treated scgd−/− mice; assay type: in vivo
Description: (§2) Different dissected muscles, gastrocnemius, quadriceps, tibialis anterior and heart muscles, were weighed and muscle weight (MW)-to-tibia length (TL) ratios (MW/TL) were determined. Results in FIG. 2(a) and FIG. 2(c) are presented as means±SEM (standard error of the means). A one-way ANOVA was used to compare means among 3 or more independent groups. A Newman-Keuls post hoc test was applied whenever multiple comparisons were conducted using InStat 3.0 (GraphPad software from Science Inc.). Values were considered significant when p<0.05.
In response to the numerous degeneration/regeneration cycles, scgd—/− mice initially presented with hypertrophic skeletal muscles as are seen in subjects suffering from LGMD. […] Reduction of skeletal muscular hypertrophy was about 1.3 fold in gastrocnemius (Gastroc.), quadriceps (Quad.) and tibialis anterior (TA) and about 1.2 fold in heart muscle (Heart) of D-[MeAla]^3-[EtVal]^4-CsA-treated scgd−/− mice compared to vehicle-treated animals.

scgd−/− mice [4] = test: Hematoxylin- and eosin-stained histological sections of quadriceps; assay type: in vivo; conditions: 50 mg/kg/day subcutaneous
Text: FIG. 2(b) represents reduction of muscle pathology after administration of D-[MeAla]^3-[EtVal]^4-CsA in Scgd−/− mice observed in representative hematoxylin- and eosin-stained sections of quadriceps from wild type (Wt) mice and scgd−/− mice treated with D-[MeAla]^3-[EtVal]^4-CsA. Corresponding vehicle controls are also shown.
as §2
Reduced pathology in the scgd−/− mice treated with D-[MeAla]^3-[EtVal]^4-CsA was also observed in histological slides of quadriceps (FIG. 2(b)).

mouse model of Duchenne = conditions: inhibition of calcineurin; cited from earlier work

Row | Substance | Effect on fibrotic areas (FIG. 2(c)) (scgd−/− mice [1]) | Fiber area distribution / heterogeneity (scgd−/− mice [2]; gastrocnemius) | Fiber area distribution / heterogeneity (scgd−/− mice [2]; quadriceps) | Population of small fibers compared to vehicle-treated scgd−/− mice (scgd−/− mice [2]; three skeletal muscles) | Fiber area distribution / heterogeneity (scgd−/− mice [2]; tibialis anterior) | Reduction of skeletal muscular hypertrophy (MW/TL) compared to vehicle-treated animals (scgd−/− mice [3]; gastrocnemius, 50 mg/kg/day subcutaneous, 4 to 10 weeks of age) | Effect on disease-associated increase in muscle weight (FIG. 2(a)) (scgd−/− mice [3]; gastrocnemius, quadriceps, tibialis anterior, heart) | Reduction of hypertrophy (MW/TL) compared to vehicle-treated animals (scgd−/− mice [3]; heart muscle, 50 mg/kg/day subcutaneous, 4 to 10 weeks of age) | Reduction of skeletal muscular hypertrophy (MW/TL) compared to vehicle-treated animals (scgd−/− mice [3]; quadriceps, 50 mg/kg/day subcutaneous, 4 to 10 weeks of age) | Reduction of skeletal muscular hypertrophy (MW/TL) compared to vehicle-treated animals (scgd−/− mice [3]; tibialis anterior, 50 mg/kg/day subcutaneous, 4 to 10 weeks of age) | Myofiber organization and fiber area distributions in histological slides (scgd−/− mice [4]) | Effect on muscle pathology (mouse model of Duchenne)
1 | [D-MeAla]^3-[EtVal]^4-CsA [D-[MeAla]^3-[EtVal]^4-CsA] | reduced fibrosis | normalized fiber area heterogeneity; also recorded: partially normalized | normalized fiber area heterogeneity; also recorded: partially normalized | Less small fibers | normalized fiber area heterogeneity; also recorded: partially normalized | about 1.3 fold | prevents an increase in muscle weight | about 1.2 fold | about 1.3 fold | about 1.3 fold | Improvement in myofiber organization and normalization of fiber area distributions | –
2 | cyclosporin A [CsA] | – | – | – | – | – | – | – | – | – | – | – | deleterious

— patent publication US20100323972A1, “NON-IMMUNOSUPPRESSIVE CYCLOSPORIN FOR THE TREATMENT OF MUSCULAR DYSTROPHY” (priority 2008, published 2010)
